Experimental data published in ChEMBL document CHEMBL5376015, “Kinase inhibitor macrocycles: a perspective on limiting conformational flexibility when targeting the kinome with small molecules” (RSC Med Chem, 2024).
pIC50, pKi: −log10 of the molar value. Values after ≈ are worked out from the molar mass of the structure shown. Values belong to the molecule of their own block, whether it stands above or below them.

Legend:
in vitro [1] = settings: human, human liver microsomes
Description: Clearance in human liver microsomes

physchem [2] = settings: octanol/water
Description: Lipophilicity, logD of the compound

[3] = target: Non-receptor tyrosine-protein kinase TYK2 (Homo sapiens, UniProt P29597); assay: Inhibition of human recombinant TYK2
[4] = target: Cyclin-dependent kinase 2 (Homo sapiens, UniProt P24941); assay: Inhibition of human recombinant CDK2 by Kinomescan method
[5] = target: Tyrosine-protein kinase JAK1 (Homo sapiens, UniProt P23458)
Description: Inhibition of human recombinant JAK1

[6] = target: T1, Tyrosine-protein kinase JAK3 (Homo sapiens, UniProt P52333); assay: Inhibition of human recombinant JAK3
T1 sequence (P52333 whole entry): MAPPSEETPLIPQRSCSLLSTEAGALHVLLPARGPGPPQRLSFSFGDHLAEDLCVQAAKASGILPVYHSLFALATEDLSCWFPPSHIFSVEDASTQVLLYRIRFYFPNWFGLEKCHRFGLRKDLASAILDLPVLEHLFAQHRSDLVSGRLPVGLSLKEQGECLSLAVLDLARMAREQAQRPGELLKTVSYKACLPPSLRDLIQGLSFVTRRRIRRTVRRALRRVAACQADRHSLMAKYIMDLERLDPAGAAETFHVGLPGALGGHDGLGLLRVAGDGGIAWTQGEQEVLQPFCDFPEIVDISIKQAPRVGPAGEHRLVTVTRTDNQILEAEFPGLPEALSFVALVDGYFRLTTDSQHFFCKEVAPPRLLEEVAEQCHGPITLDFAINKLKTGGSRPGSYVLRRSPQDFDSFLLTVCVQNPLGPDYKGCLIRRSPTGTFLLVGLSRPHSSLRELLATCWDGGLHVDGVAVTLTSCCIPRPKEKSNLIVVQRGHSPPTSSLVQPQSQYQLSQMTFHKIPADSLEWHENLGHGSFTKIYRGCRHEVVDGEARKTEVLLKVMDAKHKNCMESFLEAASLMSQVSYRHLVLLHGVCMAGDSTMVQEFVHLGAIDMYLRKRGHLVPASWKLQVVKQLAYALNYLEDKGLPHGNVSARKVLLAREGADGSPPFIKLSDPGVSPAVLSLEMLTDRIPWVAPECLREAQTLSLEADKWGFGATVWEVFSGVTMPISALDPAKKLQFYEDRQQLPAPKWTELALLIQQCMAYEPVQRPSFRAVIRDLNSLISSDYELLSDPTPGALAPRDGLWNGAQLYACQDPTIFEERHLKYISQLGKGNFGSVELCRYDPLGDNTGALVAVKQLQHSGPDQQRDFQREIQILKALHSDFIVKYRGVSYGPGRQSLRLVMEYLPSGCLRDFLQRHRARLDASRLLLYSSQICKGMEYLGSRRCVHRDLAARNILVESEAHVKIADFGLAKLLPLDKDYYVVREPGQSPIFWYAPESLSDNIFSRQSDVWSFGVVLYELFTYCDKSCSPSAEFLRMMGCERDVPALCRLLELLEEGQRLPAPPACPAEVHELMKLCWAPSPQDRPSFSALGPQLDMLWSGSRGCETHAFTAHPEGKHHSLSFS

[7] = target: T2, Receptor-type tyrosine-protein kinase FLT3 (Homo sapiens, UniProt P36888)
T2 sequence (P36888 whole entry): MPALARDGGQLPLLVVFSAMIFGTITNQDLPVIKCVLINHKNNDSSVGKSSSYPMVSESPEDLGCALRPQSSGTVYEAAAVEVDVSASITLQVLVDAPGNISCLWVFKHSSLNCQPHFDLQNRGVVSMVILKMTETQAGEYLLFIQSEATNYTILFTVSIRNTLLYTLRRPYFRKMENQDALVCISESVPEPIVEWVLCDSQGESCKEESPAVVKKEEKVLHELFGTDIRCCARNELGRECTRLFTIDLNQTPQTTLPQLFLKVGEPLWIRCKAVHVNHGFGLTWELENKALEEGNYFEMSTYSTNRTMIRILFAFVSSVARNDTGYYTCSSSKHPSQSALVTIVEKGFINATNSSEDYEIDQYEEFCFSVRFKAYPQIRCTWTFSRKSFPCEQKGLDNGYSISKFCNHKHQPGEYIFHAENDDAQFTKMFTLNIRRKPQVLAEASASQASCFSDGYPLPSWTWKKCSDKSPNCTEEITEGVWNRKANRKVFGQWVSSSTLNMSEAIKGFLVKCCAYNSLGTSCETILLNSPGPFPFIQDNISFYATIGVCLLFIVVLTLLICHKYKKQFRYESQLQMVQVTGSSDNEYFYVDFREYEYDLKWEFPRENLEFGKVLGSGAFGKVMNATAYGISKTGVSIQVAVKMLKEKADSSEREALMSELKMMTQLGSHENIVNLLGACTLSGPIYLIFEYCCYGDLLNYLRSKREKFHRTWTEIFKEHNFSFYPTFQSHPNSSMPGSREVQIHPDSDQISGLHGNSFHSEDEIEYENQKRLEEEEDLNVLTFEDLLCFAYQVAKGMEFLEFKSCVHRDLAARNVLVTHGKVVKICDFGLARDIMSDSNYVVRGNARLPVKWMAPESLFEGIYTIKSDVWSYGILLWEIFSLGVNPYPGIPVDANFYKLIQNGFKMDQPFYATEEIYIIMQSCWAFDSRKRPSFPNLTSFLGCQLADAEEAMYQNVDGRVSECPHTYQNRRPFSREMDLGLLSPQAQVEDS
Description: Inhibition of recombinant FLT3 in human MV4-11 cells assessed as reduction in ERK phosphorylation by Western blotting analysis

[8] = target: Tyrosine-protein kinase JAK2 (Homo sapiens, UniProt O60674)
Description: Inhibition of human recombinant JAK2

Cytochrome P450 2D6 [9] = target: T3, Cytochrome P450 2D6 (Homo sapiens, UniProt P10635)
Description: Inhibition of CYP2D6 in human liver microsomes using dextromethorphan as substrate by LC-MS/MS analysis

BaF3 [10] = assay: Growth inhibition of mouse BaF3 cells harboring JAK2 V617F mutant assessed as reduction in cell viability incubated for 72 hrs by MTT assay; type: functional
Cytochrome P450 3A4 [11] = target: T4, Cytochrome P450 3A4 (Homo sapiens, UniProt P08684)
Description: Inhibition of CYP3A4 in human liver microsomes using testosterone as substrate by LC-MS/MS analysis

physchem [12] = settings: PBS, pH 7
Description: Aqueous solubility of the compound in PBS at pH 7

in vitro [13] = settings: PAMPA, pH 7.4
Description: Permeability of compound at pH 7.4 by PAMPA assay

[14] = target: ALK tyrosine kinase receptor (Homo sapiens, UniProt Q9UM73)
Description: Binding affinity to ALK (unknown origin) assessed as inhibition of constant

[15] = target: ALK tyrosine kinase receptor (Homo sapiens, UniProt Q9UM73, L1196M)
Description: Binding affinity to ALK L1196M mutant (unknown origin) assessed as inhibition constant

[16] = Kinetic solubility of compound at pH 7; type: physicochemical; settings: buffer, read-out: Kinetic_solubility
in vitro [17] = settings: human, human liver microsomes; remark: listed apart in the source
Description: Half life in human liver microsome

in vitro [18] = settings: mouse, mouse liver microsomes
Description: Half life in mouse liver microsomes

[19] = Plasma protein binding in mouse; type: ADME, cell-free; settings: read-out: PPB (converted)
NIH3T3 [20] = assay: Antiproliferative activity against mouse NIH3T3 cells expressing wild type TRKC […] assessed as inhibition of cell growth measured after 72 hrs by CCK-8 assay; type: functional
BaF3 [21] = assay: cells; settings: Mus musculus, BaF3, 72 h
Description: Antiproliferative activity against mouse BaF3 cells harbouring TRKA G595R mutant assessed as cell growth inhibition incubated for 3 days by CCK8 method

NIH3T3 [22] = assay: Antiproliferative activity against mouse NIH3T3 cells harbouring ETV6-TRKC G696A mutant incubated for 3 days by CCK8 method; type: functional; settings: NIH3T3, 72 h, time 3 day
NIH3T3 [23] = assay: Antiproliferative activity against mouse NIH3T3 cells harbouring TRKA V573M mutant assessed as cell growth inhibition incubated for 3 days by CCK8 method; type: functional; settings: NIH3T3, 72 h, time 3 day
NIH3T3 [24] = assay: Antiproliferative activity against mouse NIH3T3 cells expressing TRKC G623R mutant assessed as inhibition of cell growth measured after 72 hrs by CCK-8 assay; type: functional
BaF3 [25] = assay: cells; settings: Mus musculus, BaF3, 72 h; remark: listed apart in the source
Description: Antiproliferative activity against mouse BaF3 cells harbouring wild type TRKC assessed as cell growth inhibition incubated for 3 days by CCK8 method

NIH3T3 [26] = assay: Antiproliferative activity against mouse NIH3T3 cells expressing TRKA G667S mutant assessed as inhibition of cell growth measured after 72 hrs by CCK-8 assay; type: functional
BaF3 [27] = assay: cells; settings: Mus musculus, BaF3, 72 h; remark: listed apart in the source
NIH3T3 [28] = assay: cells; settings: Mus musculus
Description: Antiproliferative activity against mouse NIH3T3 cells transfected with wild type TRKA assessed as cell growth inhibition

BaF3 [29] = assay: cells; settings: Mus musculus, BaF3, 72 h; remark: listed apart in the source
Description: Antiproliferative activity against mouse BaF3 cells harbouring ETV6-TRKC G623E mutant incubated for 3 days by CCK8 method

Cytochrome P450 3A4 [30] = target: T4, Cytochrome P450 3A4; remark: listed apart in the source
Description: Inhibition of CYP3A4 (unknown origin)

Cytochrome P450 2D6 [31] = target: T3, Cytochrome P450 2D6; remark: listed apart in the source
Description: Inhibition of CYP2D6 (unknown origin)

NIH3T3 [32] = assay: Antiproliferative activity against mouse NIH3T3 cells harbouring TRKC G595R mutant assessed as cell growth inhibition incubated for 3 days by CCK8 method; type: functional; settings: NIH3T3, 72 h, time 3 day
NIH3T3 [33] = assay: Antiproliferative activity against mouse NIH3T3 cells expressing TRKA F589L mutant assessed as inhibition of cell growth measured after 72 hrs by CCK-8 assay; type: functional

Chain of Tyrosine-protein kinase JAK1 (P23458 whole entry): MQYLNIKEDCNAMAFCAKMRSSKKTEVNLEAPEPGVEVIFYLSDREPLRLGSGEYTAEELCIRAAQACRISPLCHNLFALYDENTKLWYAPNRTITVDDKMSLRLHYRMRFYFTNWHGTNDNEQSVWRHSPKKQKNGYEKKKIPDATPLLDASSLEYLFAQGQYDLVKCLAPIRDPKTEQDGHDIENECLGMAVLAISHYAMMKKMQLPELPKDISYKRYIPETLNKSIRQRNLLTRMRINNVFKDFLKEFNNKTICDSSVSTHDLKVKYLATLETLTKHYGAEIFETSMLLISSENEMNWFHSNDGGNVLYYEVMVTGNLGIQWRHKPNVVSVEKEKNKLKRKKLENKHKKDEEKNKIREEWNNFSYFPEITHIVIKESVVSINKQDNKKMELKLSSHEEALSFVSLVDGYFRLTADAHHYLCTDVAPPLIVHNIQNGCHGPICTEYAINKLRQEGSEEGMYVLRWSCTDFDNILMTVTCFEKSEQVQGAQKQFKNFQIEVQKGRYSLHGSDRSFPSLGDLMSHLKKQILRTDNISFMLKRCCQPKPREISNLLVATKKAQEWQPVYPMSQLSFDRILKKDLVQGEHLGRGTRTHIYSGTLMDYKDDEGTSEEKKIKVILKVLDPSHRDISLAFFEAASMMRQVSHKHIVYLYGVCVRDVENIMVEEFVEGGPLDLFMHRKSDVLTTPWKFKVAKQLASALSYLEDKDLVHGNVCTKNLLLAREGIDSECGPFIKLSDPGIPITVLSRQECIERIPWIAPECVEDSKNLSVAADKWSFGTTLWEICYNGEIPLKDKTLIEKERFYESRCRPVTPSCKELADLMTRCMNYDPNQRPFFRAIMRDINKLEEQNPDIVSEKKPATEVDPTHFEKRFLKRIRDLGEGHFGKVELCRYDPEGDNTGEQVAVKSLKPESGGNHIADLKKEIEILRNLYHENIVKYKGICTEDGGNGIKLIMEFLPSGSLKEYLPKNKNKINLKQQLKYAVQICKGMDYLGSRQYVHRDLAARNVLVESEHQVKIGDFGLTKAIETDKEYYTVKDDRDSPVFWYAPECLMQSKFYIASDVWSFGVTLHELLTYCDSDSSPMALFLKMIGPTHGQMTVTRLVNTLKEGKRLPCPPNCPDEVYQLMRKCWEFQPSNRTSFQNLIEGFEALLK
Chain of Non-receptor tyrosine-protein kinase TYK2 (P29597 whole entry): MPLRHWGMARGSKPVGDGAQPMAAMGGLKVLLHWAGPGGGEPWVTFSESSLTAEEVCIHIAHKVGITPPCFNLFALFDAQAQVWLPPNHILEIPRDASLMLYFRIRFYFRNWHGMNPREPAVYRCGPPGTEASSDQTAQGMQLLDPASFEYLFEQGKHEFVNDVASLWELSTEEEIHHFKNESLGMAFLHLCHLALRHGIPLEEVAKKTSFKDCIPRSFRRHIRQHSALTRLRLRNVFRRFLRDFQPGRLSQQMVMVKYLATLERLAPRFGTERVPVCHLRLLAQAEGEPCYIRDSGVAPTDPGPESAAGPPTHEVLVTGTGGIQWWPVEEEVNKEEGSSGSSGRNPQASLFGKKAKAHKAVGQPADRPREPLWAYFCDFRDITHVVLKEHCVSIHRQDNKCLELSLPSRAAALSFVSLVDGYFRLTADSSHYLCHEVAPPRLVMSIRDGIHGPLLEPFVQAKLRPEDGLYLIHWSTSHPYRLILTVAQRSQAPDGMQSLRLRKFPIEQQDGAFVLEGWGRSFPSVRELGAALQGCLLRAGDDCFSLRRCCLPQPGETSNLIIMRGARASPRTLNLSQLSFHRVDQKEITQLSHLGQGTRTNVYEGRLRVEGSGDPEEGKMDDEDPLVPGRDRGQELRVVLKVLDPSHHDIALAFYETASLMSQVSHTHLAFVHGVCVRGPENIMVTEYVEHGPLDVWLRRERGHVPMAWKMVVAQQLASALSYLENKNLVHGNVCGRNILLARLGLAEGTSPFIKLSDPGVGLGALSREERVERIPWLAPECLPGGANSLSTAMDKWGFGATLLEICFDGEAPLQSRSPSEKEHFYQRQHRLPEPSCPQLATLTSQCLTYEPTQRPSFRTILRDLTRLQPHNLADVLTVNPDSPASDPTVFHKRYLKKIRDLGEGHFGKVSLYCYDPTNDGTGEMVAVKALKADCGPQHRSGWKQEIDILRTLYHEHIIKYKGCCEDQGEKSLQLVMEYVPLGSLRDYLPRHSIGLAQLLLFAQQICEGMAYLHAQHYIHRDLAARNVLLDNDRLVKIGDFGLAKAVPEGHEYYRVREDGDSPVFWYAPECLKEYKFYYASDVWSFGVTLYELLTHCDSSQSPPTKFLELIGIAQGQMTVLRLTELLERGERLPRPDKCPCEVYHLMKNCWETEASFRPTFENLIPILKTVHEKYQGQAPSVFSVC
Chain of Tyrosine-protein kinase JAK2 (O60674 whole entry): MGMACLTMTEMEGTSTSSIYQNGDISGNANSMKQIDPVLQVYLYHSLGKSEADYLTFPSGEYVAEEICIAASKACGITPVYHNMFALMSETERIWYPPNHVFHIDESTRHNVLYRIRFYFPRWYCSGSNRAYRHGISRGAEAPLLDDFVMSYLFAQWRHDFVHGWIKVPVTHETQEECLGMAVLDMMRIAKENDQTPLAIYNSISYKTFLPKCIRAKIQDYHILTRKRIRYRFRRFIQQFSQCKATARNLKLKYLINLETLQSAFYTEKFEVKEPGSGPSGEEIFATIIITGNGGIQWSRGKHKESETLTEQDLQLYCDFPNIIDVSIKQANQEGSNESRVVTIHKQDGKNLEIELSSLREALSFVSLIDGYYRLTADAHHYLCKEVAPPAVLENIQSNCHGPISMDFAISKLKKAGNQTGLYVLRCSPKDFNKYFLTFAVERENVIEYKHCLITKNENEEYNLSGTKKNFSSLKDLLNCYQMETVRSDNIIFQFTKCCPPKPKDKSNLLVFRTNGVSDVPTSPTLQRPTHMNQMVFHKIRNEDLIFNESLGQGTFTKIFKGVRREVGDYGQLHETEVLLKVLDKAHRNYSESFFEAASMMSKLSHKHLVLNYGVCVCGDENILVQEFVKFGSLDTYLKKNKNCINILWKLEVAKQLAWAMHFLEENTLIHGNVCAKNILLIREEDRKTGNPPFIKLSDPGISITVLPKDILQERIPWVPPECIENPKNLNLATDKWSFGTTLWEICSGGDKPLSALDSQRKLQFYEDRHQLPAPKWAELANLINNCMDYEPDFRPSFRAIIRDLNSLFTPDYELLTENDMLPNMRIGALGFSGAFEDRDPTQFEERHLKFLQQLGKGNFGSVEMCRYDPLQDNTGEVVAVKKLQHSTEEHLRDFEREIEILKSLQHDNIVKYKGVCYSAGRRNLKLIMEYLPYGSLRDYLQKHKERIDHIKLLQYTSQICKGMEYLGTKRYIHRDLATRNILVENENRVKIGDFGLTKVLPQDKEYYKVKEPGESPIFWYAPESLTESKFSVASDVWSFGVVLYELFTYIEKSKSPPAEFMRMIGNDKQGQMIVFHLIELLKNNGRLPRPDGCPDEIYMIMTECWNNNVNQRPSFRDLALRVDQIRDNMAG
T4 sequence (P08684 whole entry): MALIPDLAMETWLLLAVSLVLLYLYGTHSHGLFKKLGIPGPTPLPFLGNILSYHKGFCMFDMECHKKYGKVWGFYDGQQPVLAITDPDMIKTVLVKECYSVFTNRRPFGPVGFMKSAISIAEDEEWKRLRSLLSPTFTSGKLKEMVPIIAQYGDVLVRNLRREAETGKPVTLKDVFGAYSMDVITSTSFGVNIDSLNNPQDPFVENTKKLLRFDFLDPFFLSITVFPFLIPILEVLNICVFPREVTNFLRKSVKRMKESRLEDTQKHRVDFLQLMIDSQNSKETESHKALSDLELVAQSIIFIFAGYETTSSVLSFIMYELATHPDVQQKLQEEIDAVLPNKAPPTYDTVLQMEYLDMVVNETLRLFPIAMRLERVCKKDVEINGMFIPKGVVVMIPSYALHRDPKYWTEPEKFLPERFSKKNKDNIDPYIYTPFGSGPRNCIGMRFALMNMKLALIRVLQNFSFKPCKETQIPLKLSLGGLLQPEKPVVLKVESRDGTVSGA
T3 sequence (P10635 whole entry): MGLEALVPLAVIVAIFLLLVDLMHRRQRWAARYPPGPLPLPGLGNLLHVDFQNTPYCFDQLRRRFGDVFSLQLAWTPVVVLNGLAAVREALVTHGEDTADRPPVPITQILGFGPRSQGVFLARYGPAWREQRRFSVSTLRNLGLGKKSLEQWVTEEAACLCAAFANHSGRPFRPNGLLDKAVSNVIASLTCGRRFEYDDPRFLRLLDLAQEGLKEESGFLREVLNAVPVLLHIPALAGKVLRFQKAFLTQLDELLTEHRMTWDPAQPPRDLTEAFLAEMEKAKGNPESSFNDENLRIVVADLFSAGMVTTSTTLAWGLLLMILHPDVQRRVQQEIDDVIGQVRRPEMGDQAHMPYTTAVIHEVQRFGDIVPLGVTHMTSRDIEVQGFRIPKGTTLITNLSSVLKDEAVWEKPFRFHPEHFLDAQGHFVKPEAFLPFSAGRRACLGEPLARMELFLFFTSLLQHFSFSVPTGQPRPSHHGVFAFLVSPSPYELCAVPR

SMILES: CN(C)CCN(C)c1ccc2cc1COC/C=C/COCc1cccc(c1)-c1ccnc(n1)N2
pIC50 [3]: 7.15 | pIC50 [7]: 7.51 | pIC50 [8]: 7.11 | pIC50 [4]: 7.06 | pIC50 [5]: 5.44

SMILES: COc1ccc2cc1COC/C=C/COCc1cc(ccc1OCCN1CCCC1)Nc1nccc-2n1
pIC50 [3]: 6.74 | pIC50 (Cytochrome P450 2D6 [9]): 5.00 | GI50 (BaF3 [10]): 100 nM | pIC50 [7]: 7.04 | pIC50 [8]: 7.72 | pIC50 (Cytochrome P450 3A4 [11]): < 5.00 | pIC50 [4]: < 5.00 | solubility (physchem [12]): 60.8 µg/mL (≈ 121 µM) | pIC50 [5]: < 5.00 | pIC50 [6]: 6.05 | Papp (in vitro [13]): 10.1 ×10⁻⁶ cm/s

SMILES: OCCN1CCN(c2ccc3cc2COC/C=C/COCc2cccc(c2)-c2ccnc(n2)N3)CC1
pIC50 [3]: 6.80 | pIC50 [7]: 7.15 | pIC50 [8]: 7.08 | pIC50 [4]: 5.43 | pIC50 [5]: 5.51 | pIC50 [6]: 5.60

SMILES: Cc1cnc2nc1-c1cccc(c1)COC/C=C/COCc1cc(ccc1OCCN1CCCC1)N2
pIC50 [3]: 7.24 | GI50 (BaF3 [10]): 180 nM | pIC50 [7]: 7.72 | pIC50 [8]: 8.15 | pIC50 [5]: 6.00 | pIC50 [6]: 7.05

SMILES: C1=C2COC/C=C/COCc3cc(ccc3OCCN3CCCC3)Nc3nccc(n3)C(=C1)O2 [CT-1578]
solubility kinetic [16]: > 250 µg/mL | half-life (in vitro [17]): > 60 min | half-life (in vitro [18]): 18 min | fraction unbound [19]: 0.127

SMILES: O=C(Nc1cnn2ccc(N3CCC[C@@H]3c3cc(F)ccc3F)nc12)N1CC[C@H](O)C1 [LAROTRECTINIB]
GI50 (NIH3T3 [20]): 18.8 nM | GI50 (BaF3 [21]): 1020 nM | GI50 (NIH3T3 [22]): 172 nM | GI50 (NIH3T3 [23]): 1020 nM | GI50 (NIH3T3 [24]): > 10000 nM | GI50 (BaF3 [25]): 10.2 nM | GI50 (NIH3T3 [26]): 70 nM | GI50 (BaF3 [27]): 3290 nM | GI50 (NIH3T3 [28]): 5 nM | GI50 (BaF3 [29]): 742 nM

SMILES: C1=N/C2=N/c3ccc(OCCN4CCCC4)c(c3)COC/C=C/COCc3cccc(c3)C(=C1)N2 [PACRITINIB]
pIC50 (Cytochrome P450 2D6 [9]): 5.30 | solubility kinetic [16]: > 150 µg/mL | GI50 (BaF3 [10]): 160 nM | half-life (in vitro [17]): > 60 min | pIC50 (Cytochrome P450 3A4 [30]): < 5.30 | half-life (in vitro [18]): 22 min | fraction unbound [19]: 0.006 | pIC50 (Cytochrome P450 3A4 [11]): < 5.30 | pIC50 [4]: < 5.41 | solubility (physchem [12]): > 150 µg/mL | pIC50 (Cytochrome P450 2D6 [31]): < 5.30

SMILES: C[C@@H]1CCc2ncc(F)cc2[C@H]2CCCN2c2ccn3ncc(c3n2)C(=O)N1 [SELITRECTINIB]
GI50 (NIH3T3 [22]): 17.5 nM | GI50 (NIH3T3 [23]): 29 nM | GI50 (NIH3T3 [24]): 45.5 nM | GI50 (NIH3T3 [32]): 7 nM | GI50 (NIH3T3 [26]): 25 nM | GI50 (NIH3T3 [33]): 9 nM

SMILES: CN1C/C=C/CCOc2cccc(c2)-c2ccnc(n2)Nc2cccc(c2)C1 [ZOTIRACICLIB]
solubility kinetic [16]: 71.8 µg/mL (≈ 193 µM) | pIC50 (Cytochrome P450 3A4 [30]): < 4.60 | half-life (in vitro [18]): 12 min | fraction unbound [19]: 0.006

The next lines start with the values.

microsomal CLint (in vitro [1]): 25 µL/min/mg
SMILES: COc1ccc(F)cc1[C@@H](C)Oc1cc(-c2cnnn2C)cnc1N

logD (physchem [2]): 3.7 | microsomal CLint (in vitro [1]): 28 µL/min/mg
SMILES: CNC(=O)c1ccc(F)cc1[C@@H](C)Oc1cc(-c2cn(C)nc2C)cnc1N

microsomal CLint (in vitro [1]): 76 µL/min/mg
SMILES: CNC(=O)c1ccc(F)cc1[C@@H](C)Oc1nc(-c2cccnc2OC)cnc1N

microsomal CLint (in vitro [1]): 8.6 µL/min/mg
SMILES: Cc1nn(C)c2c1-c1cnc(N)c(c1)O[C@H](C)c1cc(F)ccc1C(=O)N(C)C2

pIC50 [3]: 6.68 | pIC50 [4]: 6.07 | pIC50 [5]: 5.72 | pIC50 [6]: 5.92
SMILES: COc1ccc2cc1COC/C=C/COCc1cccc(c1)-c1ccnc(n1)N2

logD (physchem [2]): 3.8 | pKi [14]: > 10.00 | pKi [15]: 9.21
SMILES: C[C@@H]1Oc2cc(cnc2N)-c2c(C#N)nn(C)c2CCCOc2ccc(F)cc21

microsomal CLint (in vitro [1]): < 8 µL/min/mg
SMILES: C[C@H]1Oc2cc(cnc2N)-c2c(nn(C)c2C#N)CN(C)C(=O)c2ccc(F)cc21 [LORLATINIB]
